Laboratory results as given in patent publication US20220168243A1 (priority 2020, published 2022).

Tests used:
[1] = system: SARS-CoV-2; type: cell-based, SARS-CoV-2 (USA-WA1/2020)
[2] = system: coronaviruses (MERS; SARS-1; SARS-2); details: cited from earlier work
[3] = system: Vero E6 cells; assay: Toxicity: CellTiter-Blue Cell Viability Assay

CCN(CCCc1ccccc1)CCCc1ccccc1 [Alverine]
% Inhibition at HIGHEST Non-toxic Concentration [1]: 30%

CC(C)COCC(CN(Cc1ccccc1)c1ccccc1)N1CCCC1 (stereo not shown) [Bepridil, reference compound]
% Inhibition at HIGHEST Non-toxic Concentration [1]: 60%

NC(=O)C(c1ccccc1)(c1ccccc1)[C@@H]1CCN(CCc2ccc3c(c2)CCO3)C1 [Darifenacin]
% Inhibition at HIGHEST Non-toxic Concentration [1]: 45%

CNCCCN1c2ccccc2CCc2ccccc21 [Desipramine, reference compound]
CoV Inhibition [2]: MERS; SARS-1 and MERS
TOXICITY Y/N [3]: Very weak
% Inhibition at HIGHEST Non-toxic Concentration [1]: 60%

Fc1ccc(C(c2ccc(F)cc2)N2CCN(C/C=C/c3ccccc3)CC2)cc1 [Flunarizine]
% Inhibition at HIGHEST Non-toxic Concentration [1]: 80%

Cc1ccc(NC(=O)c2ccc(CN3CCN(C)CC3)cc2)cc1Nc1nc(-c2cccnc2)cs1 [Masitinib]
% Inhibition at HIGHEST Non-toxic Concentration [1]: 90%

Cc1cn(-c2cc(NC(=O)c3ccc(C)c(Nc4nccc(-c5cccnc5)n4)c3)cc(C(F)(F)F)c2)cn1 [Nilotinib]
% Inhibition at HIGHEST Non-toxic Concentration [1]: 60%

OCCOc1ccc(/C(=C(/CCCl)c2ccccc2)c2ccccc2)cc1 [Ospemifene]
% Inhibition at HIGHEST Non-toxic Concentration [1]: 45%

CC(COc1ccccc1)N(CCCl)Cc1ccccc1 (stereo not shown) [Phenoxybenzamine]
% Inhibition at HIGHEST Non-toxic Concentration [1]: 95%

CCCCC1C(=O)N(c2ccccc2)N(c2ccccc2)C1=O [Phenylbutazone]
% Inhibition at HIGHEST Non-toxic Concentration [1]: 90%

CN(C)CCCN1c2ccccc2Sc2ccccc21 [Promazine, reference compound]
CoV Inhibition [2]: MERS; SARS-1 and MERS
TOXICITY Y/N [3]: Very weak
% Inhibition at HIGHEST Non-toxic Concentration [1]: 70%

C=CCc1ccccc1OCC(O)CNC(C)C (stereo not shown) [alprenolol]
CoV Inhibition [2]: MERS

CCN(CC)Cc1cc(Nc2ccnc3cc(Cl)ccc23)ccc1O [amodiaquine]
CoV Inhibition [2]: SARS-2; and MERS

CCN(CC)CCCC(C)Nc1ccnc2cc(Cl)ccc12 (stereo not shown) [chloroquine]
CoV Inhibition [2]: MERS

CN(C)CCCN1c2ccccc2Sc2ccc(Cl)cc21 [chlorpromazine]
CoV Inhibition [2]: SARS-2;

CN(C)CCCN1c2ccccc2CCc2ccc(Cl)cc21 [clomipramine]
CoV Inhibition [2]: MERS

COc1cc2nc(N3CCN(C(=O)C4COc5ccccc5O4)CC3)nc(N)c2cc1OC (stereo not shown) [doxazosin, reference compound]
CoV Inhibition [2]: MERS; SARS-1

OCCN1CCN(CCCN2c3ccccc3Sc3ccc(C(F)(F)F)cc32)CC1 [fluphenazine]
CoV Inhibition [2]: SARS-2; and MERS

CCN(CCO)CCCC(C)Nc1ccnc2cc(Cl)ccc12 (stereo not shown) [hydroxychloroquine]
CoV Inhibition [2]: SARS-2; and MERS

COc1c(C)c2c(c(O)c1C/C=C(\C)CCC(=O)OCCN1CCOCC1)C(=O)OC2 [mycophenolate_mofetil, reference compound]
CoV Inhibition [2]: MERS; SARS-1

CC(CN1c2ccccc2Sc2ccccc21)N(C)C (stereo not shown) [promethazine]
CoV Inhibition [2]: MERS

CC(C)NCC(O)COc1cccc2ccccc12 (stereo not shown) [propranolol, reference compound]
CoV Inhibition [2]: MERS; SARS-1

CC(C)N1CCN(c2ccc(OCC3COC(Cn4cncn4)(c4ccc(Cl)cc4Cl)O3)cc2)CC1 (stereo not shown) [terconazole, reference compound]
CoV Inhibition [2]: MERS; SARS-1

CCSc1ccc2c(c1)N(CCCN1CCN(C)CC1)c1ccccc1S2 [thiethylperazine]
CoV Inhibition [2]: SARS-2; and MERS
